Measured values: patent publication US20100099756A1, “USES OF INCENSOLE, INCENSOLE ACETATE AND DERIVATIVES THEREOF” (YISSUM RESEARCH DEVELOPMENT COMPANY OF THE HEBREW …, priority 2006, published 2010)

Tests used:
TRPV1 = TRPV1 (Homo sapiens, UniProt Q8NER1); assay: Whole-cell voltage-clamp, TRPV1(+) cells; format: cell-based; conditions: IA 200 μM
Method: TRPV3(+) response to IA is shown for reference. *, p<0.001. Error bars represent SEM, n=4-5.
Electrophysiological recording. Currents were recorded using whole-cell voltage-clamp. Pipettes were pulled from microcapillary glass (A-M Systems). A coverslip containing cells was transferred to a 300 μL chamber that was constantly perfused (1-2 mL/min) with external solution. Voltage protocols were generated and data were digitized and recorded using Pulse (HEKA Elektronik) software in conjunction with an Axopatch 200A amplifier (Axon Instruments), and the data analyzed using an in-house Visual Basic (Microsoft) analysis program.
The pipette solution contained (in mM): 121.5 Kgluconate, 10 HEPES, 17 KCl, 9 NaCl, 1 MgCl2, 0.2 EGTA, 2 MgATP, and 0.5 NaATP, pH 7.2. The external solution contained (in mM): 120 NaCl, 5 KCl, 1 MgCl2, 2 CaCl2, 10 Glucose and 20 HEPES, pH 7.4 with NaOH. The measured charge (pC) was defined as the charge elicited between -85 and -45 mV by a ramping voltage stimulus (−85 mV to +35 mV, 0.54 mV/msec; holding potential -55 mV). Currents were sampled at 5 kHz. Experimental and control cells were alternated whenever possible. Control values were obtained from adjacent cells with no detectable YFP fluorescence, presumed to be non-TRPV3-expressing.

cancer cells = assay: Cell proliferation test (MTT); format: cell-based; conditions: three days
Method: In each MTT assay every concentration of the cytotoxic substance was tested in five replicates in microplate wells. Assays with every cell line were carried out in two to three repeated experiments. The inhibitory effect of various compounds was calculated as percentage inhibition in comparison with the values obtained in untreated wells to which vehicle (ethanol 0.5%) was added.
Aliquots (200 μL) of suspensions of cancer cells were dispensed into wells of 96-well tissue culture plates at densities of 0.02×10^6 cells/well. Various concentrations of IA were introduced into the wells, and their efficacy was tested three days after initiation of the cultures, using the 3-(4,5-dimethylthiazol-2-yl)-2,5-diphenyltetrazolium bromide (MTT) assay. The principle of this assay is that cells which survive following exposure to various compounds can reduce MTT to a dark -colored formazan, while dead cells are incapable of doing so. In each MTT assay every concentration of the cytotoxic substance was tested in five replicates in microplate wells. Assays with every cell line were carried out in two to three repeated experiments. The inhibitory effect of various compounds was calculated as percentage inhibition in comparison with the values obtained in untreated wells to which vehicle (ethanol 0.5%) was added.

closed head injury = assay: Object recognition test after CHI; format: in vivo, mice
Method: This effect was sustained from 24 h to 21 days following injury as determined by the Mann-Whitney test (n=9-10 per group; * p<0.01; **p<0.001, as compared to vehicle treated, at the same day). (B) Mice were subjected to the object recognition test (Example 6) 3, 7, 14 and 21 days after CHI. The absolute time spent exploring each of the two objects was recorded and the % time calculated. At baseline (bl), when presented with two identical objects, exploration time of each object was about 50% in both groups. In the test (T) situation, after one of the objects was replaced by a novel one the % time spent exploring the new object was calculated.
Memory function was assessed by ORT (Object Recognition Test) and the results are depicted in FIG. 5B. […] Both groups spent equal time at the two objects (˜50% of total exploration time) at the baseline measurements, at all times post CHI. […] At 21 days, it appears that the vehicle-treated mice regained their ability, and exploration time reached a similar level to that of the IA-treated mice.

TRPV1, sequence (Q8NER1 whole entry): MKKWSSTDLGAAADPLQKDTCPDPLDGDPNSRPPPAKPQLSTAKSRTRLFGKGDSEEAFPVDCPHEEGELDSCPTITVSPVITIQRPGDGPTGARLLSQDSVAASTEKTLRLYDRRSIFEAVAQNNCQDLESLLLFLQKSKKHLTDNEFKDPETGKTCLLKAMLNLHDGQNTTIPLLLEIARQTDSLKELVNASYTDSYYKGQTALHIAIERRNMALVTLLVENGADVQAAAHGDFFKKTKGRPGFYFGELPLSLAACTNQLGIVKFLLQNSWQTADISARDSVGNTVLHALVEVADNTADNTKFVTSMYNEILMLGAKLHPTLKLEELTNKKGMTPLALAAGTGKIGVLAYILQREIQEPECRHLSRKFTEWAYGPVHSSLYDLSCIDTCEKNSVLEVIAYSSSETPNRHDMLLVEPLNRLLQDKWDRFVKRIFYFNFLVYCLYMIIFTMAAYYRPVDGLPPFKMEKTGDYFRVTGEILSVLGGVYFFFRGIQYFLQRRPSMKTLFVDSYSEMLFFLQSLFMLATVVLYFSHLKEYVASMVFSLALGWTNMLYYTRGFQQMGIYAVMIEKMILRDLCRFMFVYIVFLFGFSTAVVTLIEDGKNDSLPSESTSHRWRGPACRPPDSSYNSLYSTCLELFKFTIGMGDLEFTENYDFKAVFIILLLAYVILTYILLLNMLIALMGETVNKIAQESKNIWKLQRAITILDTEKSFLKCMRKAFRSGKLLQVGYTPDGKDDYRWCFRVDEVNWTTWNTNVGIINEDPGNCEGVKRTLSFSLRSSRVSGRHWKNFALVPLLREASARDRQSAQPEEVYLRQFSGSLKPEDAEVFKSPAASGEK

With `CC(=O)OC1CC/C(C)=C/CC/C(C)=C/CC2(C(C)C)CCC1(C)O2` (stereo not drawn) [IA, incensole acetate] the “current activation in TRPV1(+) cells” value (TRPV1) was “does not activate currents”, the “proliferation of cells, other cell lines (FIG. 11B)” value (cancer cells) was “no effect” and the “proliferation of cells, several cell lines (FIG. 11A)” value (cancer cells; hematopoetic cells) was “inhibited the proliferation of cells”. The “time exploring the new object, persistence of the effect” value (closed head injury; 7 and 14 days post injury) was “sustained for 7 and 14 days”, the “time exploring the new object” value (closed head injury; 3 days post injury, 50 mg/kg, P=0.01) was “significantly longer times exploring the new object” and the “memory function of naïve, non-injured mice” value (closed head injury; non-injured mice, data not shown) was “not affected”.
